Test results from patent US12295992B2, “Use of ALDH1A and agonist, catalyst and inhibitor thereof” (SHANGHAI INSTITUTES FOR BIOLOGICAL SCIENCES, CHINESE …, priority 2017, dated 2025).

What was measured:
wild-type C57BL/6 mice [1] = assay: Self-grooming experiment in wild-type mice; format: in vivo; settings: six weeks, within 10 minutes
Procedure: Four-week-aged mice were given a low dose (0.1 mg/g) or a high dose (0.3 mg/g) of DSF (Sigma, dissolved in olive oil) every two days for 6 weeks. The control group was only given the solvent olive oil (Aladdin). The body weight of the mice was weighed weekly. After 6 weeks of gastric administration, the test of mouse behavior was started. The brains of the control and DSF mice were dissected and taken. After freezing with liquid nitrogen, the brain tissue was homogenized, and ATRA was quantified by the HPLC-MS/MS method as described hereinafter. The mice used in the self-grooming experiment were placed in a cage box filled with a filler having a thickness of about 0.5-1 cm for 10 minutes in advance for accommodation. Then, within 10 minutes, the time of self-grooming in mice was recorded by a double-blind experimenter through a stopwatch.

wild-type C57BL/6 mice [2] = assay: Three-chamber social experiment in wild-type mice; format: in vivo; settings: DSF 0.3 mg/g
Procedure: Four-week-aged mice were given a low dose (0.1 mg/g) or a high dose (0.3 mg/g) of DSF (Sigma, dissolved in olive oil) every two days for 6 weeks. The control group was only given the solvent olive oil (Aladdin). The body weight of the mice was weighed weekly. After 6 weeks of gastric administration, the test of mouse behavior was started. The brains of the control and DSF mice were dissected and taken. After freezing with liquid nitrogen, the brain tissue was homogenized, and ATRA was quantified by the HPLC-MS/MS method as described hereinafter. A three-chamber social experiment was performed according to previously reported procedures (Sztainberg et al., 2015). Briefly, a transparent acrylic box for social experiment was divided into three chambers of uniform size with removable gates mounted on the partition board. An inverted iron mesh cup was placed in each of the left and right chambers. Two days before the experiment, C57BL/6 mice, which were from different family and whose age was matched with the test mice, were placed in two cups as strange mice for 1 hour each day for accommodation. Test mice were randomized into groups and accommodated to the test chamber for 1 hour before the test started. Each test mouse was placed in the center chamber for 10 minutes for self-exploration, and the chamber door was closed. In the first stage, a strange mouse was randomly placed in the left or right cup (avoiding positional bias), and the inanimate article was placed in the cup on the other side. […] In the second stage, the test mice were kept in the chamber of the strange mouse for 5 minutes, and then another strange mouse was placed in the cup in which the article was previously placed.

wild-type C57BL/6 mice [3] = assay: Open field experiment in wild-type mice; format: in vivo; settings: DSF 0.1 or 0.3 mg/g vs solvent
Procedure: (§1) Four-week-aged mice were given a low dose (0.1 mg/g) or a high dose (0.3 mg/g) of DSF (Sigma, dissolved in olive oil) every two days for 6 weeks. The control group was only given the solvent olive oil (Aladdin). The body weight of the mice was weighed weekly. After 6 weeks of gastric administration, the test of mouse behavior was started. The brains of the control and DSF mice were dissected and taken. After freezing with liquid nitrogen, the brain tissue was homogenized, and ATRA was quantified by the HPLC-MS/MS method as described hereinafter.
Mice were randomized into groups and placed in an open field instrument (Med Associates) for 30 minutes. The Ethovision automatic recording software (Noldus) was used to record the time spent by the mouse in the central region (⅓ to ⅔ of length on each side of the region) and to calculate the ratio of the distance walked in the central region to the total distance.

wild-type C57BL/6 mice [4] = assay: Rotating rod experiment in wild-type mice; format: in vivo; settings: DSF 0.1 or 0.3 mg/g
Procedure: as §1
After mice were randomized into groups, the motor coordination ability of the mice was recorded using a Rotamex rotarod instrument (Columnbus Instruments). On the same day, the test mice were tested 3 times, each experiment was lasted 5 minutes, and the rotating rod was accelerated from 4 revolutions […]. There were at least 30 minutes between two experiments. The time before the test mice dropped off the rod was automatically recorded by an infrared detection system, and the results of the last test were finally compared.

wild-type C57BL/6 mice [5] = assay: Elevated cross maze experiment in wild-type mice; format: in vivo; settings: DSF 0.1 or 0.3 mg/g vs solvent
Procedure: as §1
Mice were placed in a closed arm of an elevated cross maze (Med Associates) and recording was started for 5 minutes. Image recording was performed using a camera hanged in the air, and the number of times that the mouse entered into the open arm and the closed arm within 5 minutes was recorded and analyzed using ANY-maze software (Stoelting).

[6] = system: ATRA synthesis in the mouse brain; assay: HPLC-MS/MS quantification of ATRA in mouse brain tissue; format: in vivo, mice; settings: six weeks
Procedure: Four-week-aged mice were given a low dose (0.1 mg/g) or a high dose (0.3 mg/g) of DSF (Sigma, dissolved in olive oil) every two days for 6 weeks. The control group was only given the solvent olive oil (Aladdin). The body weight of the mice was weighed weekly. After 6 weeks of gastric administration, the test of mouse behavior was started. The brains of the control and DSF mice were dissected and taken. After freezing with liquid nitrogen, the brain tissue was homogenized, and ATRA was quantified by the HPLC-MS/MS method as described hereinafter. Sample preparation, retinoid extraction and subsequent HPLC-MS/MS analysis were performed according to the previously reported procedures (Kane et al., 2010). The frozen brains of mice were homogenized on ice with 2 mL of 0.9% saline under red light condition. 13-cis-retinoic acid-d5 (20 ng/mL, TRC) was added into the tissue homogenate as an internal reference. […] The samples were analyzed by HPLC on a 2.1×100 mm Supelcosil ABZ+PLUS column (3 urn, Sigma) column. […] The instrumentation was an AB Sciex 4000 QTRAP LC-MS/MS system, and the ATRA component was quantified in the APCI cation mode, and the ATRA content in each sample was corrected using a standard ATRA curve.

[7] = Body weight of mice during DSF administration; format: in vivo; settings: DSF 0.1 or 0.3 mg/g, weighed weekly, six weeks
Procedure: as §1

In the case of `CCN(CC)C(=S)SSC(=S)N(CC)CC` [DSF, disulfiram], the time of self-grooming (wild-type C57BL/6 mice [1]; DSF 0.1 mg/g) is reported as 30 s, the time of self-grooming (wild-type C57BL/6 mice [1]; DSF 0.3 mg/g) is reported as 42 s and the “increase of time spent in the chamber of familiar social mouse vs solvent group” value (wild-type C57BL/6 mice [2]) is reported as 50%. The “reduction of time staying in the chamber of strange social mouse vs solvent group” value (wild-type C57BL/6 mice [2]) was 30%, the “distance of the movement in the open field” value (wild-type C57BL/6 mice [3]) was “no difference” and the “time staying in the middle area of the open field” value (wild-type C57BL/6 mice [3]) was “no difference”. The “sport ability (rotating rod)” value (wild-type C57BL/6 mice [4]) was “did not affect the sport ability”, the “number of times entering the open arm as a percentage of all arm entry” value (wild-type C57BL/6 mice [5]) was “no significant difference” and the “decrease of ATRA level in brain tissue vs solvent group” value ([6]; DSF 0.1 mg/g oral every other day) was 30%. For the same molecule, the “decrease of ATRA level in brain tissue vs solvent group” value ([6]; DSF 0.3 mg/g oral every other day) was 60% and the “body weight between the groups” value [7] was “no significant difference”.
